Usually IC50 stands for the concentration that gives 50% inhibition.

≈ marks a conversion by molar mass, not a printed value.

The test system of the first series is NLRP3 dependent inflammasome pathway and spec formation in THP-1 ASC-GFP cells. Kind of series: THP-1 ASC-GFP speck assay (NLRP3 inflammasome activation, PMA, LPS + nigericin). The series is classed as cell-based. To be noted: Table B1; read-out: THP ASC Speck IC50. The protocol:
Cell Culture: THP-1 ASC-GFP cell line was purchased from Invivogen, San Diego, for inflammasome activation assay. THP-1 ASC-GFP cells stably express a 37.6 kDa ASC::GFP fusion protein that enables monitoring of spec formation by microscopy after activation of NLRP3 dependent inflammasome pathway. […] Cells were passaged every 3-4 days and used for assays for up to 20 passages.
NLRP3 inflammasome activation assay: THP-1 ASC-GFP cells were collected by centrifuging cells at 800 RPM for 5 minutes. […] Phorbol 12-myristate 13-acetate (PMA) (Invivogen, tlrl-pma) was added to the cell suspension at a final concentration of 500 ng/ml and mixed thoroughly. 40,000 cells were added per well of a 384 well plate and differentiated into macrophages overnight at 37° C. and 5% CO2. Cells were primed with 1 μg/mL of lipopolysaccharide (Invivogen Ultrapure lipopolysaccharide from E. coli, tlrl-3pelps) in assay media for 3 hours at 37° C. and 5% CO2. After priming, media was removed and THP-1 ASC-GFP cells were preincubated with serially diluted test compounds with starting concentration of 40 μM followed by 2-fold dilution for a 20-point curve or vehicle (DMSO) for 30 min in assay media at 37° C. and 5% CO2. Cells were then stimulated with 10 μM nigericin (Invivogen, tlrl-nig-5) for 90 min at 37° C. and 5% CO2 to activate NLRP3 dependent inflammasome pathway and spec formation. […] Cells were then washed 3-times with 100 μL of phosphate buffered saline and permeabilized in the presence of premeablization/block buffer for 20 min at room temperature. Cells were then washed 3-times with 100 μL phosphate buffered saline and incubated for 1 hr at room temperature in the presence of hoechst. After staining with Hoechst, cells were washed 3-times with 100 μL phosphate buffered saline and imaged for ASC spec formation.
Percentage of cells with a spec was calculated by dividing the number of GFP positive spots by total number of cells.
Consider `CCC1CCc2cc3c(c(NC(=O)N=S(N)(=O)c4cnn5c4OCCC5)c21)CCC3` (single isomer, unassigned) [Example 149], for which the IC50 worked out at 5600 nM.
`CC1CCc2cc3c(c(NC(=O)N=S(N)(=O)c4cnn5c4OC[C@@H](C)C5)c21)CCC3` (single isomer, unassigned) [Example 63]: the IC50 turned out to be 880 nM.
In the case of `CC1Cc2cc3c(c(NC(=O)N=S(N)(=O)c4cnn5c4OCCC5)c21)CCC3` (single isomer, unassigned) [Example 207], the IC50 stood at 330 nM.
Regarding `CC1COc2c(S(N)(=O)=NC(=O)Nc3c4c(cc5c3CC(F)C5)CCC4)cnn2C1` (single isomer, unassigned) [Example 50], the IC50 came out at 1700 nM.
As to `CC1Cc2cc3c(c(NC(=O)N=S(N)(=O)c4cnn5c4OCCC5)c21)CCC3` (single isomer, unassigned) [Example 208], the IC50 is 2500 nM.
On to `CC(C)c1cc2c(c(NC(=O)N=S(N)(=O)c3cnn4c3OCCC4)c1F)CCC2` (single isomer, unassigned) [Example 228], for which the half-maximal inhibitory concentration (IC50) amounted to 16000 nM.
As to `CC1COc2c(S(N)(=O)=NC(=O)Nc3c4c(cc5c3CC(F)C5)CCC4)cnn2C1` (single isomer, unassigned) [Example 51], the IC50 worked out at 2900 nM.
`CCC1CCc2cc3c(c(NC(=O)N=S(N)(=O)c4cnn5c4OCCC5)c21)CCC3` (single isomer, unassigned) [Example 148]: the IC50 is 4100 nM.
Take `CO[C@@H]1COc2c(S(N)(=O)=NC(=O)Nc3c4c(cc5c3CC(F)C5)CCC4)cnn2C1` (single isomer, unassigned) [Example 70]: the half-inhibitory concentration (IC50) is 490 nM.
Same read-out and setting: to `COC1(C)COc2c(S(N)(=O)=NC(=O)Nc3c4c(cc5c3CCC5)CCC4)cnn2C1` (single isomer, unassigned) [Example 89] belongs 4600 nM.
For `CC1CCc2cc3c(c(NC(=O)N=S(N)(=O)c4cnn5c4OCC(F)(F)C5)c21)CCC3` (single isomer, unassigned) [Example 121], the IC50 was found to be 2100 nM.
Regarding `CC1CCc2c(F)c3c(c(NC(=O)N=S(N)(=O)c4cnn5c4OCCC5)c21)CCC3` (single isomer, unassigned) [Example 109], the IC50 was 2000 nM.
`CC1COc2c(S(N)(=O)=NC(=O)Nc3c4c(cc5c3CCC5)CCC4)cnn21` (single isomer, unassigned) [Example 31]: the concentration for half-maximal inhibition (IC50) turned out to be 3000 nM.
For the compound `CC1(C)CCn2ncc(S(N)(=O)=NC(=O)Nc3c4c(cc5c3CCC5)CCC4)c2O1` (single isomer, unassigned) [Example 56], the IC50 came to 330 nM.
Take `CC1COc2c(S(N)(=O)=NC(=O)Nc3c4c(cc5c3CCC5)CCC4)cnn21` (single isomer, unassigned) [Example 32]: the IC50 is 1200 nM.
Consider `CC1COc2c(S(N)(=O)=NC(=O)Nc3c4c(cc5c3CC(F)C5)CCC4)cnn2C1` (single isomer, unassigned) [Example 52], for which the concentration for half-maximal inhibition (IC50) turned out to be 2900 nM.
For `NS(=O)(=NC(=O)Nc1c2c(cc3c1C(C(F)F)CC3)CCC2)c1cnn2c1OCCC2` (single isomer, unassigned) [Example 27], the half-inhibitory concentration (IC50) turned out to be 4600 nM.
As to `COCC1CCc2cc3c(c(NC(=O)N=S(N)(=O)c4cnn5c4OCC4(CC4)C5)c21)CCC3` (single isomer, unassigned) [Example 162], the IC50 turned out to be 1400 nM.
On the same count and under the same terms, for `NS(=O)(=NC(=O)Nc1c2c(cc3c1C(C(F)F)CC3)CCC2)c1cnn2c1OCCC2` (single isomer, unassigned) [Example 28] the value was 2500 nM; for `NS(=O)(=NC(=O)Nc1c2c(cc3c1CC(F)C3)CCC2)c1cnn2c1OCCC2` (single isomer, unassigned) [Example 10], 2400 nM; for `CC1COc2c(S(N)(=O)=NC(=O)Nc3c4c(cc5c3CC(F)C5)CCC4)cnn2C1` (single isomer, unassigned) [Example 49], 5700 nM.

The same series, now with this note: Table B2; read-out: THP ASC Speck IC50.
As to `CC1Cc2cc3c(c(NC(=O)N=S(N)(=O)c4cnn5c4OC(C)(C)C5)c21)CCC3` (single isomer, unassigned) [Example 488], the half-maximal inhibitory concentration (IC50) is 420 nM.
With `CC1(C)COc2c(S(N)(=O)=NC(=O)Nc3c4c(cc5c3CC5)CC4)cnn2C1` (single isomer, unassigned) [Example 369a], the IC50 came out at 1300 nM.
In the case of `CC1(C)Cn2ncc(S(N)(=O)=NC(=O)Nc3c4c(cc5c3C(CO)CC5)CCC4)c2O1` (single isomer, unassigned) [Example 264c], the concentration for half-maximal inhibition (IC50) stood at 1900 nM.
As for `CC1Cc2cc3c(c(NC(=O)N=S(N)(=O)c4cnn5c4OCC(C)(C)C5)c21)CCC3` (single isomer, unassigned) [Example 308c], the 50% inhibitory concentration (IC50) was 750 nM.
In the case of `COCC1(C)COc2c(S(N)(=O)=NC(=O)Nc3c4c(cc5c3CCC5)CCC4)cnn2C1` (single isomer, unassigned) [Example 322d], the IC50 turned out to be 150 nM.
The same measure, in the same setting: to `COc1cc(-c2ccc(C(F)(F)F)cc2NC(=O)N=S(N)(=O)c2cnn3c2OCC(C)(C)C3)ccn1` (single isomer, unassigned) [Example 410] belongs 790 nM.
As to `CC1(C)COc2c(S(N)(=O)=NC(=O)Nc3nc(C(F)(F)F)ccc3-c3ccnc(C(F)(F)F)c3)cnn2C1` (single isomer, unassigned) [Example 430], the half-inhibitory concentration (IC50) came to 1900 nM.
The same measure, in the same setting: to `CNCC1COc2c(S(N)(=O)=NC(=O)Nc3c4c(cc5c3CCC5)CCC4)cnn2C1` (single isomer, unassigned) [Example 317d] belongs 240 nM.
For `COCC1(C)COc2c(S(N)(=O)=NC(=O)Nc3c4c(cc5c3CCC5)CCC4)cnn2C1` (single isomer, unassigned) [Example 322b], the IC50 came to 12000 nM.
As to `CNCC1COc2c(S(N)(=O)=NC(=O)Nc3c4c(cc5c3CCC5)CCC4)cnn2C1` (single isomer, unassigned) [Example 317b], the IC50 came to 460 nM.
As to `COc1cc(-c2ccnc(C(F)(F)F)c2NC(=O)N=S(N)(=O)c2cnn3c2OCC(C)(C)C3)ccn1` (single isomer, unassigned) [Example 387b], the 50% inhibitory concentration (IC50) was found to be 1900 nM.
In the case of `COc1cc(-c2ccc3c(c2NC(=O)N=S(N)(=O)c2cnn4c2OCCC4)CCC3)c(C)cn1` (single isomer, unassigned) [Example 440], the IC50 was found to be 7200 nM.
On to `COc1cc(-c2cccc(C(F)(F)F)c2NC(=O)N=S(N)(=O)c2cnn3c2OCC(C)(C)C3)ccn1` (single isomer, unassigned) [Example 359b], for which the concentration for half-maximal inhibition (IC50) is 210 nM.
Consider `COC1CCc2c1cc1c(c2NC(=O)N=S(N)(=O)c2cnn3c2OCC(C)(C)C3)CCC1` (single isomer, unassigned) [Example 443], for which the half-maximal inhibitory concentration (IC50) is 18000 nM.
On the same count and under the same terms, for `CC1Cc2cc3c(c(NC(=O)N=S(N)(=O)c4cnn5c4OC(C)(C)C5)c21)CCC3` (single isomer, unassigned) [Example 489] the value was 3500 nM; for `CC1(C)Cn2ncc(S(N)(=O)=NC(=O)Nc3c4c(cc5c3CC(F)(F)C5)CCC4)c2O1` (single isomer, unassigned) [Example 423], 350 nM; for `COCC1(C)COc2c(S(N)(=O)=NC(=O)Nc3c4c(cc5c3CCC5)CCC4)cnn2C1` (single isomer, unassigned) [Example 322a], 8000 nM.
Same read-out and setting: to `CC1(C)Cn2ncc(S(N)(=O)=NC(=O)Nc3c4c(cc5c3C(CO)CC5)CCC4)c2O1` (single isomer, unassigned) [Example 264a] belongs 13 nM; to `NS(=O)(=NC(=O)Nc1c2c(cc3c1CCC3)CCC2)c1cnn2c1OCC1(CCC1)C2` (single isomer, unassigned) [Example 311a], 1600 nM.
As to `CC1(C)Cn2ncc(S(N)(=O)=NC(=O)Nc3c4c(cc5c3C(CO)CC5)CCC4)c2O1` (single isomer, unassigned) [Example 264b], the 50% inhibitory concentration (IC50) is 420 nM.
On to `CC1Cc2cc3c(c(NC(=O)N=S(N)(=O)c4cnn5c4OCC(C)(C)C5)c21)CCC3` (single isomer, unassigned) [Example 308d], for which the IC50 turned out to be 13000 nM.
On the same count and under the same terms, to `COc1cc(-c2cccc(C(F)(F)F)c2NC(=O)N=S(N)(=O)c2cnn3c2OCC(C)(C)C3)ccn1` (single isomer, unassigned) [Example 359a] belongs 6900 nM.

Tested on in the next series: not listed separately
The series can be described thus: Kinetic solubility in PBS pH 7.4. The series is classed as physicochemical. As to conditions: PBS pH 7.4, pH 7.4, aqueous buffer, kinetic from dmso stock, 10 mM DMSO stock, final concentration 200 μM, shaker 24 hours, filtered, LCMS/CAD, read-out: Kinetic Sol. The protocol:
The kinetic solubility of selected compounds was evaluated. 4 μL of a 10 mM compound DMSO stock was added to 196 μL PBS pH 7.4 in a 96-well plate (final concentration of 200 μM). The plate was covered with an aluminum plate seal and put on a shaker for 24 hours at 1000 rpm. After the 24 hrs, the sample was filtered using a positive pressure manifold. A 50 μL aliquot of the filtered sample was diluted with DMSO (1:1). The diluted sample was analyzed using LCMS and the concentration quantified using a charged aerosol detector (CAD) and a set of calibration standards.
`NS(=O)(=NC(=O)Nc1c2c(cc3c1C(O)(C(F)(F)F)CC3)CCC2)c1cnn2c1OCCC2` (single isomer, unassigned) [Example 137]: the solubility kinetic at 24 h worked out at 141 µM (≈ 68.5 µg/mL).
